Five compounds from ChEMBL document CHEMBL1154948, “Carbonic anhydrase inhibitors. Inhibition of transmembrane isoforms IX, XII, and XIV with less investigated anions including trithiocarbonate and dithiocarbamate” (Bioorg Med Chem Lett, 2010) can be followed below.

For test [1], the target named is Carbonic anhydrase 12 (Homo sapiens) (UniProt O43570).
Test [2] deals with Carbonic anhydrase 14 (Homo sapiens) (UniProt Q9ULX7).
Description: Inhibition of human recombinant CA14 by stopped flow CO2 hydration assay
In test [3] the target is Carbonic anhydrase 9 (Homo sapiens) (UniProt Q16790). In words: Inhibition of human recombinant CA9 by stopped flow CO2 hydration assay.

Carbonic anhydrase 14 (Homo sapiens), sequence (Q9ULX7 whole entry): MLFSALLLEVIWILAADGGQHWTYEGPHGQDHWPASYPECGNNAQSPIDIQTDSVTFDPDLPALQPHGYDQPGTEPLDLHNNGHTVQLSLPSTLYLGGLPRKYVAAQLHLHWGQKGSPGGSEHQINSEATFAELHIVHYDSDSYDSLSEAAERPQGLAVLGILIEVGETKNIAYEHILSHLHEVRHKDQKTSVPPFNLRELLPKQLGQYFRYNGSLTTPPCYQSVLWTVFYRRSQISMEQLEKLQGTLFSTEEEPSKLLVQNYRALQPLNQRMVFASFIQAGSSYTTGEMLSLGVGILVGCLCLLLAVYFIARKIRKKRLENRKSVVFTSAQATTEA
Carbonic anhydrase 12 (Homo sapiens), sequence (O43570 whole entry): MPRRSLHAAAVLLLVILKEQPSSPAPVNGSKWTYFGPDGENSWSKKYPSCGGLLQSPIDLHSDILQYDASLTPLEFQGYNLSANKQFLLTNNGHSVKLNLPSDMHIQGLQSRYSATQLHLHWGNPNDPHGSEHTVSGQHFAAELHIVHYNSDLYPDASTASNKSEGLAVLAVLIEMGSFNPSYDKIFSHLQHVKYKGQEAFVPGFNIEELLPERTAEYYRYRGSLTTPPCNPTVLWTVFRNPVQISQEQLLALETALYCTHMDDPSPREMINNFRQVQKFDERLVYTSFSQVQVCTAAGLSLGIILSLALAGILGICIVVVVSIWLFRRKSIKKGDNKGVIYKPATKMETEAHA

SODIUM STANNATE showed a Kinact in test [1] of 1.02 mM.
For `O=P(O)(O)OP(=O)(O)O`, the values for the Kinact in test [1], in test [2] and in test [3] were 63.9 mM, 0.76 mM and 46.3 mM, respectively.
For `CCN(CC)C(=S)S` the same measures were 0.0011 mM, 0.001 mM and 0.0014 mM.
For SODIUM DIOXIDOTRIOXOOSMIUM the same measures were 130 mM, 72.5 mM and 184 mM.
Regarding `O=[Se](=O)(O)O`, the Kinact in test [1] worked out at 138 mM; in test [2], 49.6 mM; in test [3], 183 mM.
